Measured values reported in US9920063B2, “Melampomagnolide B derivatives” (Board of Trustees of the University of Arkansas, priority 2013, dated 2018).
Entries after “also recorded” stand apart in the source; their conditions may differ.

Each compound was assayed on AML 052308 cells (assay: Antileukemic activity against AML 052308 cells in culture). Conditions: not given.

| SMILES | EC50 [µM] |
| --- | --- |
| C=C1C(=O)OC2C1CC/C(CO)=C\CCC1(C)OC21 (stereo not drawn) [MMB, Melampomagnolide B] | 16 |

The compounds below were run on M9 ENL cells (assay: not given). Conditions: M9ENL AML cell lines; 24 hours of drug exposure.

| SMILES | EC50 [µM] |
| --- | --- |
| C=C1C(=O)O[C@H]2[C@H]1CC/C(COC(=O)c1cc3cc(OC)ccc3[nH]1)=C\CC[C@@]1(C)O[C@@H]21 [BS-2-01] | 2.2 |
| C=C1C(=O)O[C@H]2[C@H]1CC/C(COC(=O)c1ccc(Cl)nc1)=C\CC[C@@]1(C)O[C@@H]21 [JVM 340] | 11 |

Same assay, conditions: M9 ENL cells; lowest concentration tested (5, 10 and 20 μM tested)

| SMILES | Reduction of cell viability |
| --- | --- |
| C=C1C(=O)O[C@H]2[C@H]1CC/C(COC(=O)N1CCC(F)(F)CC1)=C\CC[C@@]1(C)O[C@@H]21 [JVM 2-66] | greater than 50% |
| C=C1C(=O)O[C@H]2[C@H]1CC/C(COC(=O)OCCN1CCOCC1)=C\CC[C@@]1(C)O[C@@H]21 [JVM 2-60] | greater than 50% |
| C=C1C(=O)O[C@H]2[C@H]1CC/C(COC(=O)CCC(=O)N1CCC(C)CC1)=C\CC[C@@]1(C)O[C@@H]21 [JVM 2-70] | greater than 50% |
| C=C1C(=O)O[C@H]2[C@H]1CC/C(COC(=O)OCCN1CCCC1)=C\CC[C@@]1(C)O[C@@H]21 [JVM 2-59] | greater than 50% |

Same assay, conditions: M9 cell lines

| SMILES | Fold greater cytotoxicity than PTL [fold] |
| --- | --- |
| C=C1C(=O)O[C@H]2[C@H]1CC/C(C(=O)Nc1n[nH]c(SC)n1)=C\CC[C@@]1(C)O[C@@H]21 [JVM 3-53, (1aR,7aS,10aS,10bS,E)-1a-methyl-8-methylene-N-(5-(methylthio)-1H-1,2,4-triazol-3-yl)-9-oxo-1a,2,3,6,7,7a,8,9,10a,10b-decahydrooxireno[2′,3′:9,10]cyclodeca[1,2-b]furan-5-carboxamide] | ~30 |
| C=C1C(=O)O[C@H]2[C@H]1CC/C(COC(=O)c1ccc3ccccc3c1)=C\CC[C@@]1(C)O[C@@H]21 [JVM 3-36, ((1aR,7aS,10aS,10bS,E)-1a-methyl-8-methylene-9-oxo-1a,2,3,6,7,7a,8,9,10a,10b-decahydrooxireno[2′,3′:9,10]cycodeca[1,2-b]furan-5-yl)methyl 2-naphthoate] | 3 |

Each compound was assayed on M9 ENL cells (assay: cells). Conditions: 24 h.
Experimental: Carbamate and carbonate derivatives of MMB were also screened for activity against M9 ENL cells at concentrations of 5, 10 and 20 μM (FIG. 10). […] Additionally, succinic amide derivatives of MMB were screened for activity against M9 ENL cells at concentrations of 5, 10 and 20 μM (FIG. 11).
Ester and amide derivatives of melampomagnolide B were screened for anti-leukemic activity against M9ENL AML cell lines (FIG. 12; FIG. 14; FIG. 15; FIG. 16). For each compound, in vitro cell culture studies were performed in which a range of concentrations (0.25-20 μM) was tested for cytotoxicity against leukemia cell lines, primary leukemia specimens and normal bone marrow controls.

| SMILES | EC50 [µM] |
| --- | --- |
| C=C1C(=O)O[C@H]2[C@H]1CC/C(C(=O)N1CCCCC1)=C\CC[C@@]1(C)O[C@@H]21 [JVM 3-52] | 8.3 |
| C=C1C(=O)O[C@H]2[C@H]1CC/C(C(=O)Nc1n[nH]c(SC)n1)=C\CC[C@@]1(C)O[C@@H]21 [JVM 3-53, (1aR,7aS,10aS,10bS,E)-1a-methyl-8-methylene-N-(5-(methylthio)-1H-1,2,4-triazol-3-yl)-9-oxo-1a,2,3,6,7,7a,8,9,10a,10b-decahydrooxireno[2′,3′:9,10]cyclodeca[1,2-b]furan-5-carboxamide] | 0.016 |
| C=C1C(=O)O[C@H]2[C@H]1CC/C(COC(=O)c1ccc(Br)cc1)=C\CC[C@@]1(C)O[C@@H]21 [JVM 3-30] | 3.3 |
| C=C1C(=O)O[C@H]2[C@H]1CC/C(C(=O)N1CCC(C)CC1)=C\CC[C@@]1(C)O[C@@H]21 [JVM 3-51] | 12 |
| C=C1C(=O)O[C@H]2[C@H]1CC/C(C(=O)n1ccnc1C)=C\CC[C@@]1(C)O[C@@H]21 [JVM 3-57] | 5.9 |
| C=C1C(=O)O[C@H]2[C@H]1CC/C(COC(=O)c1cc(OC)c(OC)c(OC)c1)=C\CC[C@@]1(C)O[C@@H]21 [JVM 3-22] | 4.7 |
| C=C1C(=O)O[C@H]2[C@H]1CC/C(COC(=O)c1ccc3ccccc3c1)=C\CC[C@@]1(C)O[C@@H]21 [JVM 3-36, ((1aR,7aS,10aS,10bS,E)-1a-methyl-8-methylene-9-oxo-1a,2,3,6,7,7a,8,9,10a,10b-decahydrooxireno[2′,3′:9,10]cycodeca[1,2-b]furan-5-yl)methyl 2-naphthoate] | 1.7 |
| C=C1C(=O)O[C@H]2[C@H]1CC/C(C(=O)N1CCN(C)CC1)=C\CC[C@@]1(C)O[C@@H]21 [JVM 3-46] | 28 |
| C=C1C(=O)O[C@H]2[C@H]1CC/C(COC(=O)c1ccc(C#N)cc1)=C\CC[C@@]1(C)O[C@@H]21 [JVM 3-39] | 11 |
| C=C1C(=O)O[C@H]2[C@H]1CC/C(C(=O)N1CCC(F)(F)CC1)=C\CC[C@@]1(C)O[C@@H]21 [JVM 3-50] | 3.5 |
| C=C1C(=O)O[C@H]2[C@H]1CC/C(COC(=O)c1ccc(Cl)cc1)=C\CC[C@@]1(C)O[C@@H]21 [JVM 3-41] | 13 |
| C=C1C(=O)O[C@H]2[C@H]1CC/C(COC(=O)c1cccc3ccccc13)=C\CC[C@@]1(C)O[C@@H]21 [JVM 3-38] | 2.9 |
| C=C1C(=O)O[C@H]2[C@H]1CC/C(COC(=O)c1ccc(OC)cc1OC)=C\CC[C@@]1(C)O[C@@H]21 [JVM 3-44] | 3.5 |

These compounds were tested on panel of 60 human cancer cell lines (assay: Screen against a panel of 60 human tumor cell lines (single dose and five dose), panel and sub-panel statements). Conditions: all human tumor cell lines, with the exception of the leukemia cell line subpanel.
Assay type: cell-based

| SMILES | Growth inhibition compared to PTL (1) and DMAPT (2) |
| --- | --- |
| C=C1C(=O)O[C@H]2[C@H]1CC/C(COC(=O)N1CCC(F)(F)CC1)=C\CC[C@@]1(C)O[C@@H]21 [Compound 6a, ((1aR,7aS,10aS,10bS,E)-1a-methyl-8-methylene-9-oxo-1a,2,3,6,7,7a,8,9,10a,10b-decahydrooxireno[2′,3′:9,10]cyclodeca[1,2-b]furan-5-yl)methyl-4,4-difluoropiperidine-1-carboxylate] | generally exhibited improved growth inhibition against all human tumor cell lines when compared to PTL (1) and DMAPT (2) |
| C=C1C(=O)O[C@H]2[C@H]1CC/C(COC(=O)Nc1n[nH]c(SC)n1)=C\CC[C@@]1(C)O[C@@H]21 [Compound 6e, ((1aR,7aS,10aS,10bS,E)-1a-methyl-8-methylene-9-oxo-1a,2,3,6,7,7a,8,9,10a,10b-decahydrooxireno[2′,3′:9,10]cyclodeca[1,2-b]furan-5-yl)methyl-(5-(methylthio)-1H-1,2,4-triazol-3-yl)carbamate] | generally exhibited improved growth inhibition against all human tumor cell lines when compared to PTL (1) and DMAPT (2) |

Same assay, conditions: single concentration 10^−5 M; more than 60% growth inhibition in at least eight cell lines of the panel

| SMILES | Outcome of initial single dose screening |
| --- | --- |
| C=C1C(=O)O[C@H]2[C@H]1CC/C(COC(=O)NCCCCCCO)=C\CC[C@@]1(C)O[C@@H]21 [JVM 2-31] | selected for a five-dose screening |
| C=C1C(=O)O[C@H]2[C@H]1CC/C(COC(=O)N1CCC(F)(F)CC1)=C\CC[C@@]1(C)O[C@@H]21 [JVM 2-66] | selected for a five-dose screening |
| C=C1C(=O)O[C@H]2[C@H]1CC/C(COC(=S)n1ccnc1)=C\CC[C@@]1(C)O[C@@H]21 [JVM 66] | selected for a five-dose screening |
| C=C1C(=O)O[C@H]2[C@H]1CC/C(COC(=O)NCCN1CCCCC1)=C\CC[C@@]1(C)O[C@@H]21 [JVM 2-13] | selected for a five-dose screening |
| C=C1C(=O)O[C@H]2[C@H]1CC/C(COC(=O)NCCc1ccccn1)=C\CC[C@@]1(C)O[C@@H]21 [Compound 6c, ((1aR,7aS,10aS,10bS,E)-1a-methyl-8-methylene-9-oxo-1a,2,3,6,7,7a,8,9,10a,10b-decahydrooxireno[2′,3′:9,10]cyclodeca[1,2-b]furan-5-yl)methyl-(2-(pyridin-2-yl)ethyl)carbamate] | selected for a five-dose screening |
| C=C1C(=O)O[C@H]2[C@H]1CC/C(COC(=O)NCCO)=C\CC[C@@]1(C)O[C@@H]21 [JVM 2-50] | selected for a five-dose screening |
| C=C1C(=O)O[C@H]2[C@H]1CC/C(COC(=O)NCCN1CCCC1)=C\CC[C@@]1(C)O[C@@H]21 [Compound 6b, ((1aR,7aS,10aS,10bS,E)-1a-methyl-8-methylene-9-oxo-1a,2,3,6,7,7a,8,9,10a,10b-decahydrooxireno[2′,3′:9,10]cyclodeca[1,2-b]furan-5-yl)methyl-(2-(pyrrolidin-1-yl)ethyl)carbamate] | selected for a five-dose screening |
| C=C1C(=O)OC2C1CCC(COC(=O)c1cc3ccccc3s1)=CCCC1(C)OC21 (stereo not drawn) [BS-2-65] | selected for five dose screening |
| C=C1C(=O)O[C@H]2[C@H]1CC/C(COC(=O)c1cc3cc(OC)ccc3[nH]1)=C\CC[C@@]1(C)O[C@@H]21 [BS-2-01] | selected for five dose screening |
| C=C1C(=O)O[C@H]2[C@H]1CC/C(COC(=O)NC)=C\CC[C@@]1(C)O[C@@H]21 [JVM 2-57] | selected for a five-dose screening |
| C=C1C(=O)O[C@H]2[C@H]1CC/C(COC(=O)Nc1n[nH]c(SC)n1)=C\CC[C@@]1(C)O[C@@H]21 [Compound 6e, ((1aR,7aS,10aS,10bS,E)-1a-methyl-8-methylene-9-oxo-1a,2,3,6,7,7a,8,9,10a,10b-decahydrooxireno[2′,3′:9,10]cyclodeca[1,2-b]furan-5-yl)methyl-(5-(methylthio)-1H-1,2,4-triazol-3-yl)carbamate] | selected for a five-dose screening |
| C=C1C(=O)O[C@H]2[C@H]1CC/C(COC(=O)CCC(=O)N1CCC(C)CC1)=C\CC[C@@]1(C)O[C@@H]21 [JVM 2-70] | selected for a five-dose screening |
| C=C1C(=O)O[C@H]2[C@H]1CC/C(COC(=O)N1CCN(C)CC1)=C\CC[C@@]1(C)O[C@@H]21 [JVM 2-44] | selected for a five-dose screening |
| C=C1C(=O)OC2C1CCC(COC(=O)c1cc3cc(F)ccc3[nH]1)=CCCC1(C)OC21 (stereo not drawn) [BS-2-68] | selected for five dose screening |
| C=C1C(=O)O[C@H]2[C@H]1CC/C(COC(=O)OC)=C\CC[C@@]1(C)O[C@@H]21 [JVM 2-40] | selected for a five-dose screening |
| C=C1C(=O)O[C@H]2[C@H]1CC/C(COC(=O)NCCN1CCOCC1)=C\CC[C@@]1(C)O[C@@H]21 [Compound 6d, ((1aR,7aS,10aS,10bS,E)-1a-methyl-8-methylene-9-oxo-1a,2,3,6,7,7a,8,9,10a,10b-decahydrooxireno[2′,3′:9,10]cyclodeca[1,2-b]furan-5-yl)-methyl(2-morpholinoethyl) carbamate] | selected for a five-dose screening |
| C=C1C(=O)O[C@H]2[C@H]1CC/C(COC(=O)OCCCN1CCCCC1)=C\CC[C@@]1(C)O[C@@H]21 [JVM 2-26] | selected for a five-dose screening |
| C=C1C(=O)O[C@H]2[C@H]1CC/C(COC(=O)OCCN(C)C)=C\CC[C@@]1(C)O[C@@H]21 [JVM 2-35] | selected for a five-dose screening |
| C=C1C(=O)O[C@H]2[C@H]1CC/C(COC(=O)CCC(=O)NCc1ccc(Cl)nc1)=C\CC[C@@]1(C)O[C@@H]21 [JVM 96] | selected for a five-dose screening |
| C=C1C(=O)OC2C1CCC(COC(=O)c1cc3cc(Cl)ccc3[nH]1)=CCCC1(C)OC21 (stereo not drawn) [BS-2-30] | selected for five dose screening |

Same assay, conditions: single concentration of 10^−5 M

| SMILES | Activity in NCI single dose screen |
| --- | --- |
| C=C1C(=O)O[C@H]2[C@H]1CC/C(CNC(=O)c1cc3ccccc3[nH]1)=C\CC[C@@]1(C)O[C@@H]21 [JVM 4-19] | did not show potent activity against leukemia cell lines; also recorded: potent activity against the majority of colon cancer, melanoma, renal cancer, prostate cancer and breast cancer cell lines tested; also recorded: moderate activity against NSCLC, CNS cancer and ovarian cancer cell lines |
| C=C1C(=O)O[C@H]2[C@H]1CC/C(CNC(=O)Cc1c[nH]c3ccccc13)=C\CC[C@@]1(C)O[C@@H]21 [JVM 4-14] | potent activity against all leukemia lines tested as well as some NSCLC, colon cancer, melanoma, renal cancer and breast cancer cell lines; also recorded: moderate activity against CNS cancer and ovarian cancer |

Same assay, conditions: sub-panel of human leukemia cells

| SMILES | Antileukemic activity compared to parent compound MMB |
| --- | --- |
| C=C1C(=O)O[C@H]2[C@H]1CC/C(COC(=O)N1CCC(F)(F)CC1)=C\CC[C@@]1(C)O[C@@H]21 [Compound 6a, ((1aR,7aS,10aS,10bS,E)-1a-methyl-8-methylene-9-oxo-1a,2,3,6,7,7a,8,9,10a,10b-decahydrooxireno[2′,3′:9,10]cyclodeca[1,2-b]furan-5-yl)methyl-4,4-difluoropiperidine-1-carboxylate] | more potent than the parent compound |
| C=C1C(=O)O[C@H]2[C@H]1CC/C(COC(=O)Nc1n[nH]c(SC)n1)=C\CC[C@@]1(C)O[C@@H]21 [Compound 6e, ((1aR,7aS,10aS,10bS,E)-1a-methyl-8-methylene-9-oxo-1a,2,3,6,7,7a,8,9,10a,10b-decahydrooxireno[2′,3′:9,10]cyclodeca[1,2-b]furan-5-yl)methyl-(5-(methylthio)-1H-1,2,4-triazol-3-yl)carbamate] | more potent than the parent compound |
